Data published in patent EP3124027A1, “TRIPHENYLPHOSPHONIUM SALTS FOR USE IN CANCER THREAPY” (Centrum Badan Molekularnych I Makromolekularnych Polskiej …, priority 2015, dated 2017).
pEC50, pIC50: −log10 of the molar value. Read-outs that look alike come from different tables or passages of the source.

Experiments:
[1] = tested on: K562 cells (chronic myelogenous leukemia); assay: MTT cytotoxicity test on suspension K562 cells; format: cell-based, human; details: for fold decrease of IC50 after 48 h compared to IC50 after 24h: K562 cells; for cytotoxicity, times greater in relation to the salt Fh3P^+C5H11 I^-: K562 cells after 48 h
Protocol: (§1) Compound 1, where R = ethyl, X = I (formula 1a) and the compound 1 where R = n-octyl, and X = I (formula 1b, were tested for cytotoxic properties on two representatives of human tumor cells: adherent HeLa cells (cervical carcinoma) and suspension K562 cells (chronic myelogenous leukemia). The cytotoxicity of the test compounds was determined with the MTT test in which the yellow tetrazolium salt is reduced by dehydrogenase in the mitochondria of living cells into a purple formazan. 1.HeLa or K562 cells were seeded in 96-well plates in the amount of seven thousand cells/well in 200 µL of culture medium. Cells were incubated overnight in an incubator (37 °C, 5% CO2) 2. The tested compound was added to the cells to yield the following final concentrations in the cell culture: 1 mM, 10 µM, 100 nM, 1 nM. Cells treated with 1% DMSO served as the control with 100% viability. 3. After 24 h or 48 h incubation of HeLa or K562 cells with test compounds, 25 µL of MTT (5 mg / mL) was added to each well. MTT, a yellow tetrazolium salt is reduced to purple formazan by mitochondrial dehydrogenases of living cells, the quantity of which can be determined spectrophotometrically. Cells were incubated with MTT for two hours in an incubator (37 ° C, 5% CO2). Next, lysis buffer containing SDS and DMF was added (95 µL / well). Cells were lysed overnight at 37 ° C, 5% CO2. 4. The absorbance of each well was read on FLUOstar Omega reader at the wave length of 570 and 650 nm. The absorbance measured at 570 nm is proportional to the number of viable cells. The viability of the cells was calculated for each concentration of the test compound. The IC50 values were read from the dose - viability plots by interpolation to 50% cell survival. 5.The results indicating the strong toxicity of both, compound 1a and compound 1b to the adherent HeLa cells and suspension K562 cells are shown in Tables 1 and 2.
(§2) The compound of formula 1c was tested for cytotoxic properties on two human cell lines using the MTT assay (yellow tetrazolium salt transformed by dehydrogenase in the mitochondria of living cells into the purple formazan). The tests were performed on HeLa (cervical carcinoma) and K562 (chronic myelogenous leukemia) cells.
(§3) (Experimental protocol as in Example I).

[2] = tested on: cervical carcinoma HeLa cells and chronic myelogenous leukemia K562 cells; assay: MTT cytotoxicity, summary ranges over HeLa and K562 cells; format: cell-based; details: Homo sapiens, read-out: IG50 (the source's name)
Protocol: as §1, with “After 24 h or 48 h incubation of HeLa or K562 cells with test compounds, 25 µL of MTT (5 mg / mL) was added to each well.” left out

[3] = tested on: HeLa cells (cervical carcinoma); assay: MTT cytotoxicity test on adherent HeLa cells; format: cell-based, human; details: for cytotoxicity, times greater in relation to the salt Fh3P^+C5H11 I^-: HeLa cells after 48 h; for pIC50: Homo sapiens, HeLa
Protocol: as §1, §2, §3

K562 cells = details: K562, 24 h; PL395749; cited from earlier work
[4] = tested on: cervical carcinoma cells (HeLa); details: after 24 h, PL395749; cited from earlier work
K562 and HeLa cells = details: PL395749, cited from earlier work
HeLa cells = details: read-out: cytotoxicity EC50; cited from earlier work
[5] = Homo sapiens, K562, 24 h, read-out: IC50
[6] = Homo sapiens, K562, 48 h, read-out: IC50

Row | Structure (SMILES) | pIC50 [1, 5] | pIC50 [1, 6] | fold decrease of IC50 after 48 h compared to IC50 after 24h [1] | cytotoxicity, times greater in relation to the salt Fh3P^+C5H11 I^- [1] [times] | pIC50 ([2]; after 4 h (so in the source)) | pIC50 ([2]; after 48 hrs) | cytotoxicity, times greater in relation to the salt Fh3P^+C5H11 I^- [3] | pIC50 ([3]; 24h, read-out: IC50) | pIC50 ([3]; 48h, read-out: IC50) | other results
1 | CCCCCCCCCC[P+](c1ccccc1)(c1ccccc1)c1ccccc1.[I-] [Compound 1a, n-decyltriphenylphosphonium iodide] | 5.52 | 6.30 | six | 12 | 5.15 to 5.70 | 5.30 to 6.30 | 12-15 times | 5.15 | 5.30 | 
2 | CCCCCCCCCCCCCCCC[P+](c1ccccc1)(c1ccccc1)c1ccccc1.[I-] [Compound 1b, triphenyl-n-hexadecylphosphonium iodide] | 5.70 | 6.30 | four | 12 | 5.15 to 5.70 | 5.30 to 6.30 | 12-15 times | 5.30 | 5.40 | 
3 | BrCc1ccc(-c2ccc(C[P+](c3ccccc3)(c3ccccc3)c3ccccc3)cc2)cc1 [Compound 1c] |  |  |  |  |  |  |  |  |  | pIC50 ([1]; Homo sapiens, K562, 48 h, K562, 48 h (Table 2, compound 1c), read-out: IC50 48 h): 5.22; pIC50 ([1]; K562, 48 h (Table 2, compound 1c), read-out: IC50 48 h): 5.30; pIC50 ([3]; 48 h (Table 2, compound 1c), read-out: IC50 48 h): 4.52
4 | CCCCC[P+](c1ccccc1)(c1ccccc1)c1ccccc1 [Compound C5] |  |  |  |  |  |  |  |  |  | pIC50 (K562 cells): 4.30; pIC50 [4]: 4.05; pIC50 (K562 and HeLa cells; after 24 h): 4.05 to 4.30; pIC50 (K562 and HeLa cells; second value for C5, printed after 24 h): 4.22 to 5.22
5 | CCCCCCCCCCCCCC[P+](CCCCCC)(CCCCCC)CCCCCC.O=S(=O)([N-]S(=O)(=O)C(F)(F)F)C(F)(F)F [tri-n-hexyl(tetradecyl)phosphonium bis(trifluoromethylsulfonyl) imide] |  |  |  |  |  |  |  |  |  | pEC50 (HeLa cells): 4.10
